Results reported in patent publication US20230372262A1, “COMPOSITION FOR TREATING VASCULAR DISEASE, COMPOSITION FOR REVENTING VASCULAR DISEASE, COMPOSITION FOR TREATING HYPERTENSION, AND COMPOSITION FOR PREVENTING HYPERTENSION” (KINKI UNIVERSITY, priority 2020, published 2023).

What was measured:
[1] = tested on: rat abdominal aorta (elastic lamina); experiment: Rate of destruction of elastic lamina in cultured abdominal aorta with nicotine, EVG staining (Examples 5 to 7); conditions: as Table 7 rate of destruction
Method: Unnecessary surrounding tissues were removed from the harvested abdominal aorta, which was then dipped in a medium for aorta culture. […] These abdominal aorta specimens were cultured in a medium for aorta culture under conditions of 37° C. and 5% CO2 for 24 hours. […] Specifically, the aortic wall was stained by Elastica van Gieson (EVG) staining and immunohistochemical staining. The quantitative analysis of the histochemical stain was carried out using ImageJ software (National Institutes of Health, Bethesda, Maryland, USA). Since an elastic lamina waveform is EVG-stained, the destruction of the vascular wall was estimated from the ratio of its area. The rate of destruction of the wavy configuration of elastic lamina was calculated by dividing a destroyed region (indicated by flattening and fragmentation of elastic lamina) by the whole region of the elastic lamina.

[2] = tested on: rat abdominal aorta (elastic lamina); experiment: Recovery of elastic fibra in cultured abdominal aorta after nicotine (Example 8); conditions: for Evaluation (rate of destruction): as Table 9; for Rate of destruction (%) of elastic lamina: rat abdominal aorta, nicotine 24 h, then nothing, 24 h nicotine-free medium, or 24 h β-caryophyllene 100 nM
[3] = tested on: elastic lamina of thoracic aorta and abdominal aorta; experiment: Rate of destruction of elastic lamina in aorta of mice given nicotine water and inhaled β-caryophyllene (Example 9); assay type: in vivo, ddy mice; conditions: for Rate of destruction (%) of elastic lamina: mouse aorta, nicotine 0.5 mg/mL in drinking water and/or β-caryophyllene inhalation 1 hour per exposure day; for Evaluation (rate of destruction): as Table 10
Source text: After the test, thoracic aorta and abdominal aorta were obtained by dissection. Each harvested aorta was Elastica van Gieson (EVG)-stained to measure and evaluate the rate of destruction of elastic lamina.

Compound	Evaluation (rate of destruction) [1]	Evaluation (rate of destruction) [2]	Rate of destruction (%) of elastic lamina [2] [%]	Rate of destruction (%) of elastic lamina [3] [%]	Evaluation (rate of destruction) [3]
CN1CCCC1c1cccnc1 (stereo not drawn) [Comparative Example 2, nicotine, reference compound]	B (When the rate of destruction of the elastic lamina waveform was 30% or more, the sample was evaluated as having a state in which the vascular wall was destroyed (evaluation B))	–	–	–	–
C=C1CC/C=C(\C)CC[C@@H]2[C@@H]1CC2(C)C [Example 8, β-caryophyllene]	–	A (A rate of destruction of 35% or less was given evaluation A)	18	–	–
C=C1CC/C=C(\C)CC[C@@H]2[C@@H]1CC2(C)C [Example 5, β-caryophyllene]	A (When the rate of destruction of the elastic lamina waveform was less than 30%, the sample was evaluated as having a state in which the vascular wall was not destroyed (evaluation A))	–	–	15	–
C=C1CC/C=C(\C)CC[C@@H]2[C@@H]1CC2(C)C [Example 9, β-caryophyllene]	–	–	–	15	A (When the rate of destruction of the elastic lamina waveform was less than 30%, the sample was evaluated as having a state in which the vascular wall was not destroyed (evaluation A))
CN1CCCC1c1cccnc1 (stereo not drawn) [Comparative Example 8, nicotine, reference compound]	–	–	–	42	B (When the rate of destruction of the elastic lamina waveform was 30% or more, the sample was evaluated as having a state in which the vascular wall was destroyed (evaluation B))
C=C1CC/C=C(\C)CC[C@@H]2[C@@H]1CC2(C)C [Comparative Example 7, β-caryophyllene]	–	–	–	11	A (When the rate of destruction of the elastic lamina waveform was less than 30%, the sample was evaluated as having a state in which the vascular wall was not destroyed (evaluation A))
CN1CCCC1c1cccnc1 (single isomer, unassigned) [Comparative Example 4, nicotine]	–	B (a rate of destruction of more than 35% was given B)	54	–	–
CN1CCCC1c1cccnc1 (single isomer, unassigned) [Comparative Example 5, nicotine]	–	B (a rate of destruction of more than 35% was given B)	58	–	–
